Results: article PMC12703733, “Probing Guanidino Pendant or Bridged Groups in Cyclic Antimicrobial Peptides Derived from Temporin L: A Strategy to Improve Efficacy against Gram-Negative Bacteria” (Journal of Medicinal Chemistry, 2025)
Converted amounts (≈) assume the structure as drawn. Read-outs that look alike come from different tables or passages of the source. Marks after values point to notes of the source that are not given here. Bridge positions count the residues as written; N and C are the ends. Square brackets hold non-standard residues; d marks the D form. Peptide text beside a SMILES is read from it.

Assays:
A. baumannii ATCC 19606 = system: A. baumannii ATCC 19606; set-up: method as in Bellavita et al.; conditions: previously determined for peptide 12, ref Bellavita et al., cited from earlier work
E. coli ATCC 25922 = system: E. coli ATCC 25922; set-up: method as in Bellavita et al.; conditions: previously determined for peptide 12, ref Bellavita et al., cited from earlier work
[1] = set-up: method as in Bellavita et al.; conditions: CD in H2O; previously determined for peptide 12; ref Bellavita et al.; cited from earlier work
B. megaterium BM11 = system: B. megaterium BM11; set-up: method as in Bellavita et al.; conditions: previously determined for peptide 12, ref Bellavita et al., cited from earlier work
S. agalactiae ATCC 27591 = test: microbe, parasite or virus in culture; type: cell-based; conditions: ATCC 27591
Method in brief: (§1)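 MH broth, inoculum 2 × 10^6 cell/mL from mid-log culture; 37 °C incubation; MIC = three identical readings, four independent expts.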

E. faecalis ATCC 29212 = test: microbe, parasite or virus in culture; type: cell-based; conditions: ATCC 29212
Method in brief: as §1

P. aeruginosa PAO1 = test: microbe, parasite or virus in culture; type: cell-based; conditions: PAO1
Method in brief: as §1

E. coli D21 = test: microbe, parasite or virus in culture; type: cell-based; conditions: D21
Method in brief: as §1

[2] = system: S. epidermidis ATCC 12228; set-up: method as in Bellavita et al.; conditions: previously determined for peptide 12, ref Bellavita et al., cited from earlier work
[3] = system: Gram-negative bacteria tested; test: MIC panel, Gram-negative strains (geometric mean); type: cell-based; conditions: geometric mean of the MICs against Gram-negative bacteria tested
Experimental: (§2) The antimicrobial efficacy of the TLcyc analogues was assessed against a representative panel of Gram-positive and Gram-negative bacterial strains, by determining their minimal inhibitory concentrations (MIC), as summarized in Table . To provide an integrated measure of antimicrobial potency, we calculated the geometric mean (GM) of MIC values across all strains (GMall), as well as separately for Gram-positive (GMGram+) and Gram-negative (GMGram–) bacteria.
(§3) Bacterial strains used in this study were the Gram-positive S. aureus ATCC 25923, S. epidermidis ATCC 12228, B. megaterium BM11, S. agalactiae ATCC 27591, E. faecalis ATCC 29212 and the Gram-negative E. coli ATCC 25922, P. aeruginosa ATCC 27853, A. baumannii ATCC 19606, E. coli D21 and P. aeruginosa PAO1. […] Bacterial cells in the mid log phase were diluted in Muller Hinton (MH) at a concentration of 2 × 10^6 cell/mL. Aliquots of 50 μL of this bacterial suspension were added to 50 μL of MH containing serial 2-fold dilutions of the peptides (from 100 to 0.19 μM) in the wells a 96-well plate. Ciprofloxacin was used as antibiotic control. The plate was then incubated at 37 °C. MICs were obtained from three identical readings of four independent experiments.

P. aeruginosa ATCC 27853 = system: P. aeruginosa ATCC 27853; set-up: method as in Bellavita et al.; conditions: previously determined for peptide 12, ref Bellavita et al.; cited from earlier work
[4] = system: Gram-positive bacteria tested; test: MIC panel, Gram-positive strains (geometric mean, range); type: cell-based; conditions: geometric mean of the MICs against Gram-positive bacteria tested
Experimental: as §2, §3

all bacteria tested = test: MIC panel, geometric mean over all strains; type: cell-based; conditions: geometric mean of the MICs against all bacteria tested
Experimental: as §2, §3

S. aureus ATCC 25923 = system: S. aureus ATCC 25923; set-up: method as in Bellavita et al.; conditions: previously determined for peptide 12, ref Bellavita et al., cited from earlier work

CC[C@H](C)[C@H](NC(=O)[C@H](CCCNC(=N)N)NC(=O)[C@@H]1CCC(=O)NCCCC[C@H](NC(=O)[C@H](Cc2ccccc2)NC(=O)[C@H](Cc2c[nH]c3ccccc23)NC(=O)[C@@H]2CCCN2C(=O)[C@@H](NC(=O)[C@@H](N)Cc2ccccc2)C(C)C)C(=O)N[C@@H](CCCCN)C(=O)N[C@@H](Cc2ccccc2)C(=O)N[C@H](CC(C)C)C(=O)N1)C(=O)N[C@@H](CC(C)C)C(N)=O [Peptide 1, FVPWF[KKFlE]RIL] (H-FVPWFKKF[dL]ERIL-NH2; lactam 6-10)
MIC (A. baumannii ATCC 19606; listed as 1 (TL cyc )): 3.12 ^a μM | MIC (A. baumannii ATCC 19606): 3.12 µM (≈ 5.32 µg/mL) | MIC (E. coli ATCC 25922; listed as 1 (TL cyc )): 25 ^a μM | MIC (E. coli ATCC 25922): 25 µM (≈ 42.6 µg/mL) | Content in water (%) random [1]: 55% | Content in water (%) α-helix [1]: 2% | Content in water (%) β-strand [1]: 41% | MIC (B. megaterium BM11; listed as 1 (TL cyc )): 1.56 ^a μM | MIC (B. megaterium BM11): 1.56 µM (≈ 2.66 µg/mL) | MIC (S. agalactiae ATCC 27591): 3.12 µM (≈ 5.32 µg/mL) | MIC (E. faecalis ATCC 29212): 6.25 µM (≈ 10.7 µg/mL) | MIC (P. aeruginosa PAO1): 25 µM (≈ 42.6 µg/mL) | MIC (E. coli D21): 12.5 µM (≈ 21.3 µg/mL) | MIC ([2]; listed as 1 (TL cyc )): 3.12 ^a μM | MIC [2]: 3.12 µM (≈ 5.32 µg/mL) | geometric mean GMGram– [3]: 18.9 µM | MIC (P. aeruginosa ATCC 27853): 100 ^a μM | geometric mean GMGram+ [4]: 3.12 µM | geometric mean GMall (all bacteria tested): 7.67 µM | MIC (S. aureus ATCC 25923; listed as 1 (TL cyc )): 3.12 ^a μM | MIC (S. aureus ATCC 25923): 3.12 µM (≈ 5.32 µg/mL)
